Literature values in patent publication US12648914B2, “Injectable sustained release composition and method of using the same for treating inflammation in joints and pain associated therewith” (priority 2013, dated 2026).

Assays:
[1] = reported, Möllmann et al. 1998, after inhaled administration
[2] = human subjects, 40 mg

| Structure (SMILES) | EC50 [1] [ng/mL] | release profile after intra-articular administration [2] |
| --- | --- | --- |
| CCC(=O)O[C@]1(C(=O)SCF)[C@H](C)C[C@H]2[C@@H]3C[C@H](F)C4=CC(=O)C=C[C@]4(C)[C@@]3(F)[C@@H](O)C[C@@]21C [fluticasone propionate] | 0.007 to 0.03 |  |
| CC(C)(C)CC(=O)OCC(=O)[C@@]12OC(C)(C)O[C@@H]1C[C@H]1[C@@H]3CCC4=CC(=O)C=C[C@]4(C)[C@@]3(F)[C@@H](O)C[C@@]12C [triamcinolone hexacetonide] |  | significant initial burst followed by rapid decline |
